Experimental data as given in patent publication US3985732A, “1,2,3,11A-Tetrahydro-10-methyl-5H-pyrrolo[2,1-c][1,4]ben zodiazepin-5,11(10H)-diones” (American Cyanamid Company, priority 1975, dated 1976).

Test system: clonic seizures caused by pentylenetetrazole in rats
Assay: Protection against clonic seizures caused by pentylenetetrazole in rats (oral)
Assay type: in vivo, rat
Conditions: for effectiveness as anxiolytic agents versus closest prior art compound (respective dextrorotatory and racemic forms without 10-methyl): pentylenetetrazole test in rats, compared with Compounds 4 and 5
Method: The anti-anxiety properties of the compounds of the present invention have been established in a test which indicates anxiolytic activity by a measure of protection from convulsions resulting from the administration of pentylenetetrazol. Graded dose levels of the dextro and racemic forms of the 1,2,3,11a-tetrahydro-10-methyl-5H-pyrrolo[2,1-c][1,4]benzodiazepin-5,11(10H)-diones are administered orally, in a 2% starch vehicle, to groups of at least 5 rats. At the estimated time of peak effect, the rats are treated intravenously with pentylenetetrazole at a dose of 21 to 23 mg/kg of body weight. This dose is estimated to cause clonic seizures in 99% of unprotected rats. The effective dose of the test compound for protection of 50% of the animals is calculated by the method of J. T. Litchfield and F. Wilcoxon, Journal of Pharmacology and Experimental Therapeutics, 96, 99 (1949). The results are given in the table which follows in comparison with Librium (chlordiazepoxide), Valium (diazepam) and the dextro and racemic forms of 1,2,3,11a-tetrahydro-5H-pyrrolo-[2,1-c] [1,4]benzodiazepin-5,11(10H)-dione (U.S. Pat. No. 3,732,212) all of which were tested in exactly the same manner. It has been reported [R. T. Hill and D. H. Tedeschi, "Animal Testing and Screening Procedures in Evaluating Psychotropic Drugs" in An Introduction to Psychopharmacology, Eds. R. R. Rech and K. E. Moore, Raven Press, New York, pp. 237-288 (1971)] that there is a high degree of correlation between antagonism of pentylenetetrazole seizures in rats and antianxiety effects in higher warm-blooded animals.

CN1C(=O)[C@@H]2CCCN2C(=O)c2ccccc21 [Compound 2, Dextrorotatory 1,2,3,11a-Tetrahydro-10-methyl-5H-pyrrolo[2,1-c][1,4]benzodiazepin-5,11(10H)-dione]
effectiveness as anxiolytic agents versus closest prior art compound (respective dextrorotatory and racemic forms without 10-methyl): far more effective

CN1C(=O)C2CCCN2C(=O)c2ccccc21 (racemic) [Compound 3, Racemic (DL) 1,2,3,11a-Tetrahydro-10-methyl-5H-pyrrolo[2,1-c][1,4]benzodiazepin-5,11(10H)-dione]
effectiveness as anxiolytic agents versus closest prior art compound (respective dextrorotatory and racemic forms without 10-methyl): far more effective

CN1C(=O)[C@@H]2CCCN2C(=O)c2cc(F)ccc21 [Dextrorotatory 7-Fluoro-1,2,3,11a-tetrahydro-10-methyl-5H-pyrrolo[2,1-c][1,4]benzodiazepin-5,11(10H)-dione]
ED50 (Rattus norvegicus, 2% starch vehicle, at least 5 rats per group, pentylenetetrazole 21 to 23 mg/kg intravenously at estimated time of peak effect, Litchfield and Wilcoxon, read-out: Medium Effective Oral Dose ED50, protection against clonic seizures caused by pentylenetetrazole): 4 mg/kg
effectiveness as anxiolytic agents versus closest prior art compound (respective dextrorotatory and racemic forms without 10-methyl): far more effective
